Here are results for one compound from PMC3187668 (Chemmedchem, 2011).

Each structure is given as a SMILES string.

The target of this assay is PI3Kα (Homo sapiens, UniProt P42336). Briefly: […]-ATP lipid kinase assay. In kind it is biochemical.
PI3Kα, sequence (P42336 whole entry): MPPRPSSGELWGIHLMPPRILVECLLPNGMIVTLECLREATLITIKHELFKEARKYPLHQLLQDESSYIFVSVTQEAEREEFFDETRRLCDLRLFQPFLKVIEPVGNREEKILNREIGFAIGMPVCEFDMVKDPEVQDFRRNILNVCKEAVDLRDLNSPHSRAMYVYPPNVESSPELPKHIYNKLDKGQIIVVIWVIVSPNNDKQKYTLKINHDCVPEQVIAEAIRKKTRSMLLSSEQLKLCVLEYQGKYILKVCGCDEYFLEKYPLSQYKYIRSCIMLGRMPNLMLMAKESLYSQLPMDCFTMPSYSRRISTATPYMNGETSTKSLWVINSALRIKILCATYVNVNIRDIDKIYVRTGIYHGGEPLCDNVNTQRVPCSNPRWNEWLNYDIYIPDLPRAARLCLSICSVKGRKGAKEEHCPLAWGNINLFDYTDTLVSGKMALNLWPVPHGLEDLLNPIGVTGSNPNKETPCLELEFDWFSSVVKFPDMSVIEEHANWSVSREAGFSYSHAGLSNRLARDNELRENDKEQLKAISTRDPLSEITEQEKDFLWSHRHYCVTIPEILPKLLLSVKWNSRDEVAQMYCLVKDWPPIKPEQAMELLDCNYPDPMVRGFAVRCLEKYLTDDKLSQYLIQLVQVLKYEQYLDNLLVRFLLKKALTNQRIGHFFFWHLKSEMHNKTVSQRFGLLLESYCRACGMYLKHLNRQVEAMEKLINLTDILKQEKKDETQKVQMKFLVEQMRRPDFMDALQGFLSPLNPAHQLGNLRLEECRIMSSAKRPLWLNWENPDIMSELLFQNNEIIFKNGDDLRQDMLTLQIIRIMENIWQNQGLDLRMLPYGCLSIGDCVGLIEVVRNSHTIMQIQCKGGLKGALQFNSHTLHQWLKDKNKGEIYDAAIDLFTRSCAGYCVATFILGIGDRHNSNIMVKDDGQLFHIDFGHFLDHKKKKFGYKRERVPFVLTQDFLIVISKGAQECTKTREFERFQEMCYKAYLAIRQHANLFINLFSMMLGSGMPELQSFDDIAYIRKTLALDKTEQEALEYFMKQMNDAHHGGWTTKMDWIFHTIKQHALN
PI3Kα, sequence (P27986 2-724 partner): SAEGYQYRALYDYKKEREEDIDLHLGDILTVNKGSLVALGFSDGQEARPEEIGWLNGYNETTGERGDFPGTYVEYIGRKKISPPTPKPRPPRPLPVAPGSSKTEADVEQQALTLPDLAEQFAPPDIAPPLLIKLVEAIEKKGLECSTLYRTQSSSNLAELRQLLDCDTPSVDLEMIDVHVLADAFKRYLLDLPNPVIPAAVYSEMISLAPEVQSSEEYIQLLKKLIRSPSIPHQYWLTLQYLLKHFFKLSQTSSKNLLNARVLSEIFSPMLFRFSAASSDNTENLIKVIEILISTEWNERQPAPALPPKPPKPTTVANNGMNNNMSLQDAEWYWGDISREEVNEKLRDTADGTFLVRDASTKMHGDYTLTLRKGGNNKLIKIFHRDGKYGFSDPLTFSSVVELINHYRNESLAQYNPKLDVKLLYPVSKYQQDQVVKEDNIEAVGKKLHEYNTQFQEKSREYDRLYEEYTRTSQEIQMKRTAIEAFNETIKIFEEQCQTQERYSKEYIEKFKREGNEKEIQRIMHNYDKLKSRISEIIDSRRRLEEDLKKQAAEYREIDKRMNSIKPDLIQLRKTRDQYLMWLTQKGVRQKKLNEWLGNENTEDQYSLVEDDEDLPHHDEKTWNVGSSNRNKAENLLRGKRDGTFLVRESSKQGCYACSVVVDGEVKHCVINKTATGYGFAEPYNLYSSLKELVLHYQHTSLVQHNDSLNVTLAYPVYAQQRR

As to `O=C1NC(=S)SC1=Cc1ccc2nccnc2c1` [compound 19, 19], the IC50 is 3 nM.
